This passage reports Ki and IC50 results from patent US20230159510A1, “NOVEL PRMT5 INHIBITORS” (AMGEN INC., priority 2020, published 2023).

What is called Ki is a dissociation constant, usually derived from enzyme kinetics or from competition with a known ligand. Usually IC50 stands for the point on the concentration scale where inhibition reaches its midpoint.

Read-outs that look alike come from different tables or passages of the source. Some results are limits rather than exact numbers.

The target in one assay is PRMT5/MEP50 (Homo sapiens, UniProt O14744). In words: MTase-Glo methyl transferase assay, Method A (Histone H4 peptide, 1 µM MTA, 24 h pre-incubation). The assay is classed as biochemical. On the set-up: made in house. Conditions: read-out: PRMT5 MTase Glo Ki (nM, Meth. A). Put shortly:
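Luminescent SAH detection (MTase-Glo) after a 2 h room-temperature methylation of 1 µM biotinylated H4 (1-21) peptide by 10 nM PRMT5/MEP50 with 5 µM SAM, in 50 mM Tris pH 8.0.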

In another assay the test system is HCT116 WT cells. In words: HCT116 proliferation assay, WT cells (CellTiter-Glo, 6 days). Conditions: Homo sapiens, HCT-116, 144 h, read-out: Prolif_HCT116-WT IC50. The class given is cell-based. In short, it runs like this:
(§1)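 Seed cells in RPMI 1640 supplemented with 10% FBS and incubate overnight at 37° C under 5% CO2. Treat with serially diluted compound (threefold steps, 8 or 9 points, highest 1 or 10 µM) or DMSO alone, then quantify viability by luminescence.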
(In general: In ATP-based viability assays light output follows the ATP content of the culture.)

The test system of another assay is HCT116 MTAP null cells. As to the kind of experiment: HCT116 proliferation assay, MTAP null cells (CellTiter-Glo, 6 days). The assay is classed as cell-based. The settings on record: 144 h, read-out: Protif_ HCT116-MTAP null IC50. Put shortly: as §1

Sequence of PRMT5/MEP50 (O14744 whole entry): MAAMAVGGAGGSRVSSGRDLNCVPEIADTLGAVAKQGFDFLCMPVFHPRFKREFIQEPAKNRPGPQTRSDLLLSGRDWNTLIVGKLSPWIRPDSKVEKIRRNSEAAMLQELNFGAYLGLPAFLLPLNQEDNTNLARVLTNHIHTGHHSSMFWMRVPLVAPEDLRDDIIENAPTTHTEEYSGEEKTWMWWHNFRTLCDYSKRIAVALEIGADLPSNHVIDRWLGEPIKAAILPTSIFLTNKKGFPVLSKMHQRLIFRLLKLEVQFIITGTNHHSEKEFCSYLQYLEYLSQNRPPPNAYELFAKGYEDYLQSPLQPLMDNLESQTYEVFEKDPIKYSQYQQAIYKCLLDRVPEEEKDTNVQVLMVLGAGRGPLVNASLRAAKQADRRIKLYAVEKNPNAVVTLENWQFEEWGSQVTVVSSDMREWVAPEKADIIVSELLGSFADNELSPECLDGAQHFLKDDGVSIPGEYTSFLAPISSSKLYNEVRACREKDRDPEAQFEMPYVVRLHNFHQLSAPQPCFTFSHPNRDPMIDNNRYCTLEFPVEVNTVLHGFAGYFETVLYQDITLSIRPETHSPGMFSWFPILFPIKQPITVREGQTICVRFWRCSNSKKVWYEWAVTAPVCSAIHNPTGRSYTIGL
Sequence of PRMT5/MEP50 (Q9BQA1 whole entry partner): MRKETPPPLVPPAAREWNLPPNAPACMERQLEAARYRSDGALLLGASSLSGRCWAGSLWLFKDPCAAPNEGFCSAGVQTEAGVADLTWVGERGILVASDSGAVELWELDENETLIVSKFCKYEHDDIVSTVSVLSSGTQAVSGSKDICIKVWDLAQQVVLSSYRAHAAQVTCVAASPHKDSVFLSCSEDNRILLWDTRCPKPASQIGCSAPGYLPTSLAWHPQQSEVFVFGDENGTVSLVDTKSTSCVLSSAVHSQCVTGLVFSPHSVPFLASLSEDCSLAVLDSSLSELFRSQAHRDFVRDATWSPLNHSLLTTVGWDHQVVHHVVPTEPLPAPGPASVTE

Consider `Cc1cc2cc(C(=O)N(Cc3ccc(C(F)(F)F)cc3)Cc3ncccc3F)ccc2nc1N` [Example 328, 2-amino-N-((3-fluoro-2-pyridinyl)methyl)-3-methyl-N-(4-(trifluoromethyl)benzyl)-6-quinolinecarboxamide], for which the Ki at PRMT5/MEP50 was found to be 0.41 nM. The IC50 in the assay with HCT116 WT cells was 4640 nM; in the assay on HCT116 MTAP null cells (HCT116-MTAP null), 178 nM.

In the case of `Cc1cc(C(F)(F)F)ccc1CN(Cc1ncccc1F)C(=O)c1ccc2nc(N)c(C)cc2c1` [Example 329, 2-amino-N-((3-fluoro-2-pyridinyl)methyl)-3-methyl-N-(2-methyl-4-(trifluoromethyl)benzyl)-6-quinolinecarboxamide], the Ki at PRMT5/MEP50 turned out to be 0.13 nM. For the same molecule, the IC50 in the assay with HCT116 WT cells came to 3900 nM; in the assay on HCT116 MTAP null cells (HCT116-MTAP null), 128 nM.

Consider `Cc1cc2cc(C(=O)N(Cc3ccc(Cl)cn3)CC(C)C)ccc2nc1N` [Example 330, 2-amino-N-((5-chloro-2-pyridinyl)methyl)-3-methyl-N-(2-methylpropyl)-6-quinolinecarboxamide], for which, on PRMT5/MEP50, the Ki was determined as 1.87 nM. Further, the IC50 worked out at 8570 nM in the assay on HCT116 WT cells and 628 nM with HCT116 MTAP null cells (HCT116-MTAP null).

For `COC(=O)c1ccc(CN(Cc2ncccc2F)C(=O)c2ccc3nc(N)c(C)cc3c2)nc1` [Example 331, methyl 6-((((2-amino-3-methyl-6-quinolinyl)carbonyl)((3-fluoro-2-pyridinyl)methyl)amino)methyl)-3-pyridinecarboxylate], on PRMT5/MEP50, the inhibitory constant (Ki) was 0.13 nM. For the same molecule, the 50% inhibitory concentration (IC50) with HCT116 WT cells was above 10000 nM; in the assay on HCT116 MTAP null cells (HCT116-MTAP null) it was 490 nM.

As for `Cc1cc2cc(C(=O)N(Cc3ccc(C(F)(F)F)cn3)C3CC3)c(F)cc2nc1N` [Example 332, 2-amino-N-cyclopropyl-7-fluoro-3-methyl-N-((5-(trifluoromethyl)-2-pyridinyl)methyl)-6-quinolinecarboxamide], the Ki at PRMT5/MEP50 stood at 4.87 nM. Moreover, the IC50 in the assay with HCT116 WT cells came out at 5140 nM; in the assay on HCT116 MTAP null cells (HCT116-MTAP null) it was 479 nM.

For the molecule `Cc1cc2cc(C(=O)N(Cc3ccc(C4=CCOCC4)nn3)[C@H](C)c3ncccn3)ccc2nc1N` [Example 333, 2-amino-N-((6-(3,6-dihydro-2H-pyran-4-yl)-3-pyridazinyl)methyl)-3-methyl-N-((1R)-1-(2-pyrimidinyl)ethyl)-6-quinolinecarboxamide], the Ki on PRMT5/MEP50 was 0.002 nM. Besides, the IC50 turned out to be 720 nM in the assay with HCT116 WT cells and 27 nM in the assay on HCT116 MTAP null cells (HCT116-MTAP null).

For the molecule `C[C@H](c1ncccn1)N(Cc1ccc(C2=CCOCC2)nn1)C(=O)c1ccc2nc(N)c(Cl)cc2c1` [Example 334, 2-amino-3-chloro-N-((6-(3,6-dihydro-2H-pyran-4-yl)-3-pyridazinyl)methyl)-N-((1R)-1-(2-pyrimidinyl)ethyl)-6-quinolinecarboxamide], the Ki on PRMT5/MEP50 was determined as 0.34 nM. The results for the IC50 in the assay on HCT116 WT cells and with HCT116 MTAP null cells (HCT116-MTAP null) were above 10000 nM and 434 nM, respectively.

`Cc1cc2cc(C(=O)N(Cc3ccncn3)Cc3ccc(C(F)(F)F)cn3)ccc2nc1N` [Example 335, 2-amino-3-methyl-N-(4-pyrimidinylmethyl)-N-((5-(trifluoromethyl)-2-pyridinyl)methyl)-6-quinolinecarboxamide]: the Ki at PRMT5/MEP50 stood at 0.73 nM. For the same molecule, the IC50 with HCT116 WT cells is above 10000 nM; in the assay with HCT116 MTAP null cells (HCT116-MTAP null), 727 nM.

Consider `Cc1cc2cc(C(=O)N(Cc3ccc(C(F)(F)F)cn3)Cc3cnccn3)ccc2nc1N` [Example 336, 2-amino-3-methyl-N-(2-pyrazinylmethyl)-N-((5-(trifluoromethyl)-2-pyridinyl)methyl)-6-quinolinecarboxamide], for which the Ki at PRMT5/MEP50 worked out at 0.47 nM. Further, the IC50 with HCT116 WT cells was above 10000 nM; in the assay on HCT116 MTAP null cells (HCT116-MTAP null) it was 400 nM.

On to `Cc1cnc(CN(Cc2ccc(C(F)(F)F)cn2)C(=O)c2ccc3nc(N)c(C)cc3c2)cn1` [Example 337, 2-amino-3-methyl-N-((5-methyl-2-pyrazinyl)methyl)-N-((5-(trifluoromethyl)-2-pyridinyl)methyl)-6-quinolinecarboxamide], for which, at PRMT5/MEP50, the Ki was found to be 0.39 nM. The IC50 with HCT116 WT cells is above 10000 nM; with HCT116 MTAP null cells (HCT116-MTAP null), 434 nM.

For `Cc1cc2cc(C(=O)N(Cc3ccc(C(F)(F)F)cn3)Cc3ncccn3)ccc2nc1N` [Example 338, 2-amino-3-methyl-N-(2-pyrimidinylmethyl)-N-((5-(trifluoromethyl)-2-pyridinyl)methyl)-6-quinolinecarboxamide], on PRMT5/MEP50, the Ki came to 0.8 nM. Moreover, the IC50 was above 10000 nM with HCT116 WT cells and 232 nM with HCT116 MTAP null cells.

In the case of `Cc1cc2cc(C(=O)N(Cc3ccc(Cl)cn3)Cc3ncccn3)ccc2nc1N` [Example 340, 2-amino-N-((5-chloro-2-pyridinyl)methyl)-3-methyl-N-(2-pyrimidinylmethyl)-6-quinolinecarboxamide], the Ki on PRMT5/MEP50 came out at 1.39 nM. For the same molecule, the IC50 in the assay on HCT116 WT cells was above 10000 nM; in the assay on HCT116 MTAP null cells (HCT116-MTAP null), 505 nM.

In the case of `Cc1cc2cc(C(=O)N(Cc3ccc(C(F)(F)F)cn3)Cc3ncc(F)cn3)ccc2nc1N` [Example 341, 2-amino-N-((5-fluoro-2-pyrimidinyl)methyl)-3-methyl-N-((5-(trifluoromethyl)-2-pyridinyl)methyl)-6-quinolinecarboxamide], the inhibition constant (Ki) on PRMT5/MEP50 turned out to be 0.52 nM. Also, the IC50 in the assay with HCT116 WT cells was above 10000 nM; in the assay with HCT116 MTAP null cells (HCT116-MTAP null), 437 nM.

In the case of `Cc1cc2cc(C(=O)N(Cc3ccncc3)Cc3ccc(C(F)(F)F)cn3)ccc2nc1N` [Example 342, 2-amino-3-methyl-N-(4-pyridinylmethyl)-N-((5-(trifluoromethyl)-2-pyridinyl)methyl)-6-quinolinecarboxamide], the inhibition constant Ki on PRMT5/MEP50 was 2.72 nM. In addition, the IC50 in the assay on HCT116 WT cells is above 10000 nM; in the assay on HCT116 MTAP null cells (HCT116-MTAP null), 730 nM.

`Cc1cc2cc(C(=O)N(Cc3ccc(C(F)(F)F)cn3)Cc3ncccc3C)ccc2nc1N` [Example 343, 2-amino-3-methyl-N-((3-methyl-2-pyridinyl)methyl)-N-((5-(trifluoromethyl)-2-pyridinyl)methyl)-6-quinolinecarboxamide]: the Ki on PRMT5/MEP50 was found to be 0.66 nM. Also, the IC50 in the assay on HCT116 WT cells came to 2830 nM; in the assay with HCT116 MTAP null cells (HCT116-MTAP null), 104 nM.

Turning to `Cc1cc2cc(C(=O)N(Cc3ccc(C(F)(F)F)cn3)Cc3c(F)cccc3F)ccc2nc1N` [Example 344, 2-amino-N-(2,6-difluorobenzyl)-3-methyl-N-((5-(trifluoromethyl)-2-pyridinyl)methyl)-6-quinolinecarboxamide], the Ki at PRMT5/MEP50 is 0.1 nM. Besides, the figures for the IC50 with HCT116 WT cells and with HCT116 MTAP null cells (HCT116-MTAP null) were 1800 nM and 73 nM, respectively.

As for `C[C@H](c1ccc(F)cc1F)N(Cc1ccc(C(F)(F)F)cn1)C(=O)c1cnc2nc(N)c(Br)cc2c1` [Example 346, 7-amino-6-bromo-N-((1R)-1-(2,4-difluorophenyl)ethyl)-N-((5-(trifluoromethyl)-2-pyridinyl)methyl)-1,8-naphthyridine-3-carboxamide], the Ki on PRMT5/MEP50 was 0.04 nM. Also, the IC50 amounted to 1580 nM in the assay with HCT116 WT cells and 81 nM in the assay on HCT116 MTAP null cells (HCT116-MTAP null).

In the case of `C[C@H](c1ncccn1)N(Cc1ccc(C(F)(F)F)cn1)C(=O)c1ccc2nc(N)c(Cl)cc2c1` [Example 347, 2-amino-3-chloro-N-((1R)-1-(2-pyrimidinyl)ethyl)-N-((5-(trifluoromethyl)-2-pyridinyl)methyl)-6-quinolinecarboxamide], the inhibitory constant (Ki) on PRMT5/MEP50 is 0.17 nM. Moreover, the IC50 with HCT116 WT cells is 6200 nM; in the assay on HCT116 MTAP null cells (HCT116-MTAP null), 168 nM.

Consider `C[C@H](c1ncccn1)N(Cc1ccc(Br)nn1)C(=O)c1ccc2nc(N)c(Cl)cc2c1` [Example 348, 2-amino-N-((6-bromo-3-pyridazinyl)methyl)-3-chloro-N-((1R)-1-(2-pyrimidinyl)ethyl)-6-quinolinecarboxamide], for which, on PRMT5/MEP50, the Ki was 0.73 nM. Also, the half-inhibitory concentration (IC50) is above 10000 nM in the assay with HCT116 WT cells and 413 nM in the assay on HCT116 MTAP null cells (HCT116-MTAP null).

For the molecule `Cc1cc2cc(C(=O)N(Cc3ccc(Br)nn3)[C@H](C)c3ncccn3)c(F)cc2nc1N` [Example 349, 2-amino-N-((6-bromo-3-pyridazinyl)methyl)-7-fluoro-3-methyl-N-((1R)-1-(2-pyrimidinyl)ethyl)-6-quinolinecarboxamide], the inhibitory constant (Ki) at PRMT5/MEP50 was determined as 0.02 nM. Besides, the IC50 in the assay on HCT116 WT cells was 848 nM; in the assay with HCT116 MTAP null cells (HCT116-MTAP null) it was 36 nM.

Consider `C[C@H](c1ncccn1)N(Cc1ccc(Br)nn1)C(=O)c1cnc2nc(N)c(Br)cc2c1` [Example 350, 7-amino-6-bromo-N-((6-bromo-3-pyridazinyl)methyl)-N-((1R)-1-(2-pyrimidinyl)ethyl)-1,8-naphthyridine-3-carboxamide], for which the Ki on PRMT5/MEP50 is 0.56 nM. The IC50 in the assay with HCT116 WT cells is above 10000 nM; with HCT116 MTAP null cells (HCT116-MTAP null), 397 nM.

In the case of `C[C@H](c1ncccc1F)N(Cc1ccc(C#N)cn1)C(=O)c1ccc2nc(N)c(Cl)cc2c1` [Example 351, 2-amino-3-chloro-N-((5-cyano-2-pyridinyl)methyl)-N-((1R)-1-(3-fluoro-2-pyridinyl)ethyl)-6-quinolinecarboxamide], on PRMT5/MEP50, the Ki amounted to 1.29 nM. The half-maximal inhibitory concentration (IC50) with HCT116 WT cells is above 10000 nM; with HCT116 MTAP null cells (HCT116-MTAP null), 824 nM.

`C[C@H](c1ncccc1F)N(Cc1ccc(C#N)cn1)C(=O)c1ccc2nc(N)c(Br)cc2c1` [Example 352, 2-amino-3-bromo-N-((5-cyano-2-pyridinyl)methyl)-N-((1R)-1-(3-fluoro-2-pyridinyl)ethyl)-6-quinolinecarboxamide]: the Ki on PRMT5/MEP50 was 0.14 nM. Further, the IC50 worked out at 8090 nM in the assay with HCT116 WT cells and 200 nM in the assay with HCT116 MTAP null cells (HCT116-MTAP null).

Consider `Cc1cc2cc(C(=O)N(Cc3ccc(C#N)cn3)[C@H](C)c3ncccc3F)c(F)cc2nc1N` [Example 353, 2-amino-N-((5-cyano-2-pyridinyl)methyl)-7-fluoro-N-((1R)-1-(3-fluoro-2-pyridinyl)ethyl)-3-methyl-6-quinolinecarboxamide], for which, at PRMT5/MEP50, the inhibition constant Ki stood at 0.02 nM. Moreover, the figures for the IC50 with HCT116 WT cells and with HCT116 MTAP null cells (HCT116-MTAP null) were 1510 nM and 73 nM, respectively.
